Data from patent US20080096848A1, “Substituted N-Aryl-9-Oxo-9H-Fluorene-1-Carboxamides and Analogs as Activators of Caspases and Inducers of Apoptosis” (CYTOVIA INC., priority 2004, published 2008).
Where two headings read alike, the source gives them in different places.

Experiments:
MX1 = experiment: Inhibition of cell proliferation (GI50), CellTiter 96 AQueous One, MX1 cells; format: cell-based; conditions: Homo sapiens, 48 h incubation, read-out: GI50 (dose for 50% inhibition of cell proliferation)
Method: (§1) T-47D and MX1 cells were grown and harvested as in Example 39. An aliquot of 90 μL of cells (2.2×10^4 cells/mL) was added to a well of a 96-well microtiter plate containing 10 μl of a 10% DMSO in RPMI-1640 media solution containing 1 nM to 100 μM of N-(2-methylphenyl)-9-oxo-9H-fluorene-1-carboxamide (0.1 nM to 10 μM final) or other test compound. An aliquot of 90 μL of cells was added to a well of a 96-well microtiter plate containing 10 μL of a 10% DMSO in RPMI-1640 media solution without compound as the control sample for maximal cell proliferation (AMax). The samples were mixed by agitation and then incubated at 37° C. for 48 h in a 5% CO2-95% humidity incubator. After incubation, the samples were removed from the incubator and 20 μL of CellTiter 96 AQUEOUS One Solution Cell Proliferation™ reagent (Promega) was added. The samples were mixed by agitation and incubated at 37° C. for 2-4 h in a 5% CO2-95% humidity incubator. Using an absorbance plate reader (Model 1420 Wallac Instruments), an initial reading (T=0) was made about 1-2 min after addition of the solution, employing absorbance at 490 nm. This determines the possible background absorbance of the test compounds. No absorbance for N-(2-methylphenyl)-9-oxo-9H-fluorene-1-carboxamide was found at 490 nm. After the 2-4 h incubation, the samples were read for absorbance as above (ATest).
(§2) Baseline for GI50 (dose for 50% inhibition of cell proliferation) of initial cell numbers were determined by adding an aliquot of 90 μL of cells or 90 μL of media, respectively, to wells of a 96-well microtiter plate containing 10 μL of a 10% DMSO in RPMI-1640 media solution. The samples were mixed by agitation and then incubated at 37° C. for 0.5 h in a 5% CO2-95% humidity incubator. After incubation, the samples were removed from the incubator and 20 μL of CellTiter 96 AQUEOUS One Solution Cell Proliferation™ reagent (Promega) was added. The samples were mixed by agitation and incubated at 37° C. for 2-4 h in a 5% CO2-95% humidity incubator. Absorbance was read as above, (AStart) defining absorbance for initial cell number used as baseline in GI50 determinations.
(§3) GI50 (dose for 50% inhibition of cell proliferation) is the concentration where [(ATest−Astart)/(AMax−Astart)]=0.5.

T-47D [1] = experiment: Inhibition of cell proliferation (GI50), CellTiter 96 AQueous One, T-47D cells; format: cell-based; conditions: Homo sapiens, T47D, 48 h incubation, read-out: GI50 (dose for 50% inhibition of cell proliferation)
Method: as §1, §2, §3

T-47D [2] = experiment: Caspase cascade activation assay (Ac-DEVD-R110 fluorogenic substrate) in T-47D cells; format: cell-based, Human; conditions: 24 h incubation; for Caspase activity (Ratio): ratio of net RFU (T=3 h) of test compound to control, 0.16 to 10 μM final; for EC50: sigmoidal dose-response, read-out: Caspase potency EC50
Method: Human breast cancer cell lines T-47D was grown according to media component mixtures designated by American Type Culture Collection+10% FCS (Invitrogen Corporation), in a 5% CO2-95% humidity incubator at 37° C. T-47D and ZR-75-1 cells were maintained at a cell density between 30 and 80% confluency and for HL-60 at a cell density of 0.1 to 0.6×10^6 cells/mL. Cells were harvested at 600×g and resuspended at 0.65×10^6 cells/mL into appropriate media+10% FCS. An aliquot of 45 μL of cells was added to a well of a 96-well microtiter plate containing 5 μL of a 10% DMSO in RPMI-1640 media solution containing 1.6 to 100 μM of N-(2-methylphenyl)-9-oxo-9H-fluorene-1-carboxamide or other test compound (0.16 to 10 μM final). An aliquot of 45 μL of cells was added to a well of a 96-well microtiter plate containing 5 μL of a 10% DMSO in RPMI-1640 media solution without test compound as the control sample. The samples were mixed by agitation and then incubated at 37° C. for 24 h in a 5% CO2-95% humidity incubator. After incubation, the samples were removed from the incubator and 50 μL of a solution containing 20 μM of N—(Ac-DEVD)-N′-ethoxycarbonyl-R110 fluorogenic substrate (SEQ ID NO:1) (Cytovia, Inc.; U.S. Pat. No. 6,335,429), 20% sucrose (Sigma), 20 mM DTT (Sigma), 200 mM NaCl (Sigma), 40 mM Na PIPES buffer pH 7.2 (Sigma), and 500 μg/mL lysolecithin (Calbiochem) was added. The samples were mixed by agitation and incubated at room temperature. Using a fluorescent plate reader (Model 1420 Wallac Instruments), an initial reading (T=0) was made about 1-2 min after addition of the substrate solution, employing excitation at 485 nm and emission at 530 nm, to determine the background fluorescence of the control sample. After about 3 h of incubation, the samples were read for fluorescence as above (T=3 h).
The Relative Fluorescence Unit values (RFU) were used to calculate the sample readings as follows: RFU(T=3h)−Control RFU(T=0)=Net RFU(T=3h)
The activity of caspase cascade activation was determined by the ratio of the net RFU value for N-(2-methylphenyl)-9-oxo-9H-fluorene-1-carboxamide and other test compounds to that of control samples. The EC50 (nM) was determined by a sigmoidal dose-response calculation (Prism 2.0, GraphPad Software Inc.).

| SMILES | GI50 (MX1) [nM] | GI50 (T-47D [1]) [nM] | Caspase activity (Ratio) (T-47D [2]) | EC50 (T-47D [2]; Homo sapiens, T47D, 24 h) [nM] | melting point [°C] | EC50 (T-47D [2]) [nM] |
| --- | --- | --- | --- | --- | --- | --- |
| [N-]=[N+]=Nc1ccccc1NC(=O)c1cccc2c1C(=O)c1ccccc1-2 [Example 27, N-(2-Azido-phenyl)-9-oxo-9H-fluorene-1-carboxamide] | 90 | 45 | 4.0 | 1400 |  |  |
| Cc1ccccc1NC(=O)c1cccc2c1C(=O)c1ccccc1-2 [Example A, N-(2-Methylphenyl)-9-oxo-9H-fluorene-1-carboxamide] | 549 | 146 | 11.2 | 570 |  |  |
| Cc1ccccc1NC(=O)c1cccc2c1Cc1ccccc1-2 [Example 13, N-(2-Methylphenyl)-9H-fluorene-1-carboxamide] | 6000 | 5040 | 6.0 | 1100 |  |  |
| O=C(Nc1ccccc1-n1cc(Br)cn1)c1cccc2c1C(=O)c1cc([N+](=O)[O-])ccc1-2 [Example 38, N-(2-(4-Bromo-1H-pyrazol-1-yl)phenyl)-7-nitro-9-oxo-9H-fluorene-1-carboxamide] | 315 | 429 | 8.0 | 302 |  |  |
| CN(C)c1ccccc1NC(=O)c1cccc2c1C(=O)c1ccccc1-2 [Example 10, N-(2-Dimethylaminophenyl)-9-oxo-9H-fluorene-1-carboxamide] | 736 | 665 | 8.0 | 1540 | 152 to 153 |  |
| [N-]=[N+]=Nc1ccc2c(c1)C(=O)c1c(C(=O)Nc3ccccc3-n3cccn3)cccc1-2 [Example 37, 7-Azido-N-(2-(1H-pyrazol-1-yl)phenyl)-9-oxo-9H-fluorene-1-carboxamide] | 200 | 415 | 3.0 | 681 |  |  |
| CN(C)Cc1ccccc1NC(=O)c1cccc2c1C(=O)c1ccccc1-2 [Example 20, N-(2-Dimethylaminomethylphenyl)-9-oxo-9H-fluorene-1-carboxamide] | 8000 | 233 | 6.7 |  |  | 697 |
| O=C(Nc1ccccc1-n1cccn1)c1cccc2c1C(=O)c1cc([N+](=O)[O-])ccc1-2 [Example 29, 7-Nitro-N-(2-(1H-pyrazol-1-yl)phenyl)-9-oxo-9H-fluorene-1-carboxamide] | 150 | 166 | 5.3 | 231 |  |  |
| O=C(Nc1ccccc1-n1cccn1)c1cccc2c1C(=O)c1ccccc1-2 [Example 9, N-(2-(1H-Pyrazol-1-yl)-phenyl)-9-oxo-9H-fluorene-1-carboxamide] | 1000 | 451 | 7.7 | 979 |  |  |
| O=C(Nc1ccccc1-n1cccn1)c1cccc2sc3ccccc3c12 [Example 32, N-(2-(1H-Pyrazol-1-yl)phenyl)-dibenzothiophene-1-carboxamide] | 4350 | 2470 | 2.7 | 1280 |  |  |
| O=C(Nc1ccccc1-n1cccn1)c1cccc2c1Cc1ccccc1-2 [Example 12, N-(2-(1H-Pyrazol-1-yl)-phenyl)-9H-fluorene-1-carboxamide] |  |  | 8.9 | 1580 | 179 to 180 |  |
| CN(C(=O)c1cccc2c1C(=O)c1ccccc1-2)c1ccccc1-n1cccn1 [Example 28, N-Methyl-N-(2-(1H-pyrazol-1-yl)phenyl)-9-oxo-9H-fluorene-1-carboxamide] | > 10000 | > 10000 | 1.2 | > 10000 |  |  |
| COc1ccccc1NC(=O)c1cccc2c1C(=O)c1ccccc1-2 [Example 15, N-(2-Methoxyphenyl)-9-oxo-9H-fluorene-1-carboxamide] | 2000 | 600 | 6.6 | 577 |  |  |
| O=C(Nc1ccccc1F)c1cccc2c1C(=O)c1ccccc1-2 [N-(2-Fluorophenyl)-9-oxo-9H-fluorene-1-carboxamide] |  |  | 5.7 | 1960 |  |  |
| O=C(Nc1ccccc1-n1cccn1)c1cccc2c1-c1ccccc1S2(=O)=O [Example 33, 9,9-Dioxo-N-(2-(1H-pyrazol-1-yl)phenyl)-dibenzothiophene-1-carboxamide] |  |  | 1.6 |  |  | > 10000 |
